These results are taken from US20040126359A1, “Hedgehog” (priority 2001, published 2004).

In experiment [1] the test system is CD4+ T-cells. Nature of the experiment: Taqman real time PCR of Shh, Ihh, HIP and Ptc expression in CD4+ T-cells (FIGS. 14, 15, 17). The following applies: for Hip expression / Shh expression: activated T-cells, IFNγ; for Shh expression / production by activated T-cells: cytokine added. It counts as cell-based. On the procedure: Expression in medium, in the presence of 50 ng/ml IL-10 and in the presence of 50 ng/ml IFN-γ was compared to expression in resting CD4+ T-cells;
Similar experiments were used to study the expression of Shh (FIG. 4) and Ptc (FIG. 5) in T-cells and the expression of components of the Hh signalling pathway in lymphoid tissues (FIG. 6). FIG. 14 illustrates the results of an RT-PCR analysis of Shh, Ihh, Hip and Ptc expression. Activation of T-cells induced a sustained and marked (approximately 80-fold) increase in Shh mRNA, peaking at 44 and 72 hours. It lead to a downregulation of Ptc.
Background: In qPCR the cycle at which signal appears reflects the starting amount.

Experiment [2] concerns the target endogenous Shh produced by activated mouse CD4+ T-cells (mouse) (UniProt Q62226). The experiment in a line: cell-based or functional assay.

Sequence of endogenous Shh produced by activated mouse CD4+ T-cells (mouse) (Q62226 25-198 limits assumed): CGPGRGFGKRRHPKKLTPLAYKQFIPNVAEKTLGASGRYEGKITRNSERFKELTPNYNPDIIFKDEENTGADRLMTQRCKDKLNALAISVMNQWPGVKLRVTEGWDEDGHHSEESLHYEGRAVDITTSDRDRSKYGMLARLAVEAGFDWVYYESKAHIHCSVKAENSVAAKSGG

Regarding IFNγ: cytokine interferon gamma, the Hip expression entry is “upreguated” in experiment [1] (24 and 48 hours); “downregulted” in experiment [1] (72 hours). The Shh expression entry in experiment [1] (24 hours) is “downregulation”; in experiment [1] (48 hours), “upregulation”. Besides, the “Shh expression / production by activated T-cells” value (from here on “Shh expression / production”) in experiment [1] is listed as “downregulation”.

Consider TGF-β, for which the “Shh expression / production” value in experiment [1] is recorded as “down-regulate”.

In experiment [2], neutralising anti-Shh antibody 5E1 returned a % decrease in the proportion of CD4+ T-cells in S/G2 with anti-Shh antibody (50 µg/ml), cell cycle analysis of 66.2 to 81.6%; a % decrease in the proportion of CD4+ T-cells in S/G2 with anti-Shh antibody (50 µg/ml), cell cycle analysis, mean of 73.4%; a decrease in proliferation of sub-optimally activated CD4+ T-cells with 50 µg/ml anti-Shh antibody (3H-TdR incorporation) of 71.3 to 85.1%.

B1: IL-10: immunosuppressive cytokine, interleukin (protein, UniProt P22301 19-178, looked up)
Interleukin-10: SPGQGTQSENSCTHFPGNLPNMLRDLRDAFSRVKTFFQMKDQLDNLLLKESLLEDFKGYLGCQALSEMIQFYLEEVMPQAENQDPDIKAHVNSLGENLKTLRLRLRRCHRFLPCENKSKAVEQVKNAFNKLQEKGIYKAMSEFDIFINYIEAYMTMKIRN
B1: the “Shh expression / production” value in experiment [1] is reported as “down-regulate”.
